# From patent US5070210A, “Novel ketenimines as intermediates for insecticides” (ICI Americas Inc., priority 1990, dated 1991)
# Columns and labels:
# Type in all cases: in vivo
# [1] = test system: Aster Leafhopper [Macrosteles fascifrens (Stal)]; assay: Aster leafhopper insecticidal test; conditions: adults/nymphs, percent in solution; 48 hours
# Summary of the method: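 Three ~10 cm oat seedlings per cup were dipped 2-3 seconds in 50-50 acetone-water compound solutions, dried, and caged with ten adult/nymph leafhoppers. Mortality was counted after 48 hours at concentrations from 0.05% downward. LC50, as percent compound in solution, came from dosage-mortality curves.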
# [2] = test system: Maize weevil [Sitophilus Zeamais (Motschulsky)]; assay: Maize weevil insecticidal test; conditions: adult weevils, percent in solution; 48 hours
# Summary of the method: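 LC50, in percent of compound in solution, was derived from dosage-mortality curves after 48 h at about 25 °C. Ten adult weevils per container fed on four corn seeds briefly immersed in acetone:water (50:50) solutions of up to 0.01% and dried.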
# [3] = test system: Tobacco Budworm [Heliothis virescens (Fabricius)] eggs; assay: Tobacco budworm egg test; conditions: 2-day old eggs, percent in solution
# Summary of the method: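 LC50 values (percent test compound in the dip solution) were calculated from dosage-mortality curves. Egg patches, 2 days old, were dipped in acetone solutions at concentrations from 0.1% downward and held at 78° F on rearing medium until control larvae hatched and fed.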
# [4] = test system: Cabbage Looper [Trichoplusia ni (Hubner)]; assay: Cabbage looper insecticidal test; conditions: second-instar larvae, percent in solution; 3-5 days
# Summary of the method: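 Leaf dip, squash cotyledons, 50-50 acetone-water, top dose 0.1% and lower. 5 second-instar larvae/dish, moist filter paper, high-humidity chamber. Mortality at 3-5 d; LC50 (% in solution) from dosage-mortality curves.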
# [5] = test system: Housefly [Musca domestica]; assay: Housefly insecticidal test; conditions: μg per 25 female flies; mortality after 48 hours
# Summary of the method: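 Acetone solutions (with 0.01% peanut oil) dried onto dish bottoms, then 25 female flies, 1-2 days old, caged over the residue with sugar water. Mortality scored at 48 hours; LC50 from dosage-mortality curves, in μg per 25 female flies, top level 100 μg.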
Compound,"LC50, LH [1] [%]","LC50, MW [2] [%]","LC50, TBW, E (TBW-E) [3] [%]","LC50, CL [4] [%]","LC50, HF [5] [µg]"
CC(C)(F)C(=Nc1ccc(F)c(Cl)c1)OCc1cccc(Oc2ccc(F)cc2F)c1 [Compound 315],> 0.05,> 0.01,> 0.1,0.002,> 100
CC(C)(F)C(=Nc1ccc(F)c(Cl)c1)OCc1cc(Oc2ccc(F)cc2)ccc1F [Compound 316],> 0.05,> 0.01,> 0.1,0.0015,100
CC(C)C(=Nc1cccc(C(C)(C)C)c1)OCc1cccc(Oc2ccc(F)cc2)c1 [Compound 350],> 0.05,> 0.01,> 0.1,0.0045,> 100
CC(C)C(=Nc1ccc(Br)cc1F)OCc1cccc(Oc2ccc(F)cc2)c1 [Compound 351],> 0.05,> 0.01,> 0.1,0.0007,26
CSc1ccc(N=C(OCc2ccc(F)c(Oc3ccccc3)c2)C(C)C)cc1 [Compound 353],> 0.05,> 0.01,> 0.1,> 0.1,< 100
Cc1ccc(N=C(OCc2ccc(F)c(Oc3ccccc3)c2)C(C)C)cc1F [Compound 354],< 0.05,0.0068,0.018,> 0.1,< 100
Cc1ccc(N=C(OCc2ccc(F)c(Oc3ccc(F)cc3)c2)C(C)C)cc1F [Compound 355],< 0.05,> 0.01,> 0.1,> 0.1,< 100
Cc1ccc(N=C(OCc2ccc(F)c(Oc3ccccc3)c2)C(C)C)cc1Cl [Compound 356],< 0.05,> 0.01,0.025,> 0.1,< 100
Cc1ccc(N=C(OCc2ccc(F)c(Oc3ccc(F)cc3)c2)C(C)C)cc1Cl [Compound 357],< 0.05,0.01,> 0.1,> 0.1,< 100
Cc1cc(N=C(OCc2ccc(F)c(Oc3ccccc3)c2)C(C)C)ccc1Br [Compound 358],< 0.05,> 0.01,> 0.1,> 0.1,< 100
Cc1cc(N=C(OCc2ccc(F)c(Oc3ccc(F)cc3)c2)C(C)C)ccc1Br [Compound 359],0.05,> 0.01,0.023,> 0.1,< 100
CCc1ccc(N=C(OCc2ccc(F)c(Oc3ccccc3)c2)C(C)C)cc1 [Compound 360],< 0.05,> 0.01,> 0.1,0.006,< 100
CCc1ccc(N=C(OCc2ccc(F)c(Oc3ccc(F)cc3)c2)C(C)C)cc1 [Compound 361],< 0.05,> 0.01,0.04,0.001,< 100
CSc1cccc(N=C(OCc2ccc(F)c(Oc3ccccc3)c2)C(C)C)c1 [Compound 362],> 0.05,> 0.01,> 0.1,> 0.1,< 100
COc1ccc(N=C(OCc2ccc(F)c(Oc3ccc(F)cc3)c2)C(C)C)cc1OC [Compound 363],> 0.05,> 0.01,> 0.1,> 0.1,< 100
CC(C)C(=Nc1ccc(Br)c(C(F)(F)F)c1)OCc1ccc(F)c(Oc2ccc(F)cc2)c1 [Compound 364],< 0.05,> 0.01,0.025,0.00045,< 100
CC(C)C(=Nc1ccc(C(F)(F)F)cc1)OCc1cccc(Oc2ccc(Cl)cc2)c1 [Compound 365],< 0.05,> 0.01,0.038,0.00025,> 100
CC(C)C(=Nc1ccc2c(c1)OCO2)OCc1ccc(F)c(Oc2ccc(Cl)cc2)c1 [Compound 366],0.05,> 0.01,0.012,0.0007,< 100
CC(C)C(=Nc1ccc2c(c1)OCO2)OCc1cccc(Oc2ccc(C(C)(C)C)cc2)c1 [Compound 367],> 0.05,> 0.01,> 0.1,< 0.1,> 100
CC(C)C(=Nc1ccc(F)cc1)OCCc1cccc(Oc2ccccc2)c1 [Compound 456],> 0.05,> 0.01,> 0.05,0.017,> 100
CC(C)C(=Nc1ccc2c(c1)OCO2)OCc1cccc(Oc2ccc(Cl)cc2)n1 [Compound 466],> 0.05,0.01,> 0.1,0.0008,13
CC(C)C(=Nc1ccc(F)c(Cl)c1)OCc1ccc(OCc2ccccc2)cc1 [Compound 475],> 0.05,> 0.01,> 0.1,0.008,> 100
C=CCOc1cccc(COC(=Nc2ccc(F)c(Cl)c2)C(C)C)c1 [Compound 479],> 0.05,> 0.01,> 0.1,0.013,66
CC(C)C(=Nc1ccc(F)c(Cl)c1)OCc1cccc(OCc2ccc(F)cc2)c1 [Compound 490],> 0.05,> 0.01,> 0.1,0.0045,> 100
CC(C)C(=Nc1ccc(F)c(Cl)c1)OCc1cccc(Oc2ccc(Br)cc2)n1 [Compound 492],> 0.05,> 0.01,0.015,0.00028,15
CC(C)C(=Nc1ccc(F)c(Cl)c1)OCc1cccc(Nc2ccc(F)cc2)c1 [Compound 512],> 0.05,> 0.01,> 0.1,0.003,35
CC(C)C(=Nc1cccc(C(F)(F)F)c1)OCc1cccc(Nc2ccc(F)cc2)c1 [Compound 513],> 0.05,> 0.01,> 0.1,0.007,81
CC(C)C(=Nc1ccc(Cl)c(Cl)c1)OCc1cccc(Nc2ccc(F)cc2)c1 [Compound 514],> 0.05,> 0.01,> 0.1,0.008,> 100
